Data published in US6465501B2, “Azolidines as β3 adrenergic receptor agonists” (Wyeth, priority 2000, dated 2002).
Like-named read-outs stand apart in the source and are kept apart here.

Columns and labels:
human β3-AR = biological target: T1, human β3-AR (Homo sapiens, UniProt P13945); experiment: cAMP accumulation (SPA) in CHO cells transfected with human β3 adrenergic receptor; type: cell-based; settings: for Emax: read-out: IA(β3)
T1 construct: Full length β3 AR clones (402 amino acids) containing the last 6 amino acids of hβ3; expressed in transfected cells; host or cells: CHO (Chinese hamster ovary) cells
Description: The ability of compounds of this invention to treat or inhibit disorders related to insulin resistance or hyperglycemia was established with representative compounds of this invention in the following standard pharmacological test procedures, which measured the binding selectivity to the β1, β2, and β3 adrenergic receptors. Binding to the receptors was measured in Chinese Hamster ovary (CHO) cells that were transfected with adrenergic receptors. The following briefly summarizes the procedures used and results obtained.
Cloning of Human β3-AR Genomic DNA: cDNA was constructed by ligating four polymerase chain reaction (PCR) products using the following primers: an ATG-Narl fragment, sense primer 5′-[…]3′ and anti-sense primer 5′[…]3′; a Narl-Accl fragment, 5′[…]3′ as sense and 5′[…]3′ as anti-sense primer; an Accli-Styl fragment, sense primer 5′[…]3′ and anti-sense primer 5′[…]3′ and a Styl-TAG fragment, with sense primer 5′[…]3′ and anti-sense primer 5′[…]3′. The corresponding primer sequences are described in Mantzoros, C. S., etal, Diabetes 45: 909-914 (1996). The four fragments are ligated into a pUC 18 plasmid (Gibco-BRL) and sequenced. Full length β3 AR clones (402 amino acids) containing the last 6 amino acids of hβ3 . . . AR are prepared with the β3-βARpcDNA3 from ATTC.
Binding Procedure: Clones expressing receptor levels of 70 to 110 fmoles/mg protein were used in the test procedures. CHO cells were grown in 24-well tissue culture plates in Dulbecco's Modified Eagle Media with 10% fetal bovine serum, MEM non-essential amino acids, Penicillin-Streptompycin and Geneticin. On the day of test procedure, growth medium was replaced with preincubation media (Dulbecco's Modified Eagle Media and incubated for 30 minutes at 37° C. Preincubation medium was replaced with 0.2 ml treatment medium containing DMEM media containing 250 μM IBMX (isobutyl-1-methylxantine) plus 1 mM ascorbic acid with test compound dissolved in DMSO. Test compounds were tested over a concentration range of 10^−9 M to 10^−5 M for β3 cells and 10^″8 to 10^″4 M for β1 and β2 transfected cells. Isoproterenol (10^−5 M) was used as an internal standard for comparison of activity. Cells were incubated at 37° C. on a rocker for 30 min with the β3 cells and 15 min for β1 and β2 cells. Incubation was stopped with the addition of 0.2 N HCI and neutralized with 2.5 N NaOH. The plates, containing the cells and neutralized media, were stored at −20 degrees celsius until ready to test for cAMP using the SPA test kit (Amersham).
Data Analysis and Results: Data collected from the SPA test procedure were analyzed as percent of the maximal isoproterenol response at 10^−5 M. Activity curves were plotted using the SAS statistical and graphics software. EC50 values were generated for each compound and the maximal response (IA) developed for each compound is compared to the maximal response of isoproternol at 10^−5 M from the following formula: [formula]

[1] = CHO cells expressing human β3-AR, cAMP, 30 min at 37° C., 10^-9 M to 10^-5 M, read-out: EC50(β3)
[2] = maximal response compared to the maximal response of isoproterenol at 10^-5 M, CHO cells expressing human β3-AR

T1 sequence (P13945 whole entry): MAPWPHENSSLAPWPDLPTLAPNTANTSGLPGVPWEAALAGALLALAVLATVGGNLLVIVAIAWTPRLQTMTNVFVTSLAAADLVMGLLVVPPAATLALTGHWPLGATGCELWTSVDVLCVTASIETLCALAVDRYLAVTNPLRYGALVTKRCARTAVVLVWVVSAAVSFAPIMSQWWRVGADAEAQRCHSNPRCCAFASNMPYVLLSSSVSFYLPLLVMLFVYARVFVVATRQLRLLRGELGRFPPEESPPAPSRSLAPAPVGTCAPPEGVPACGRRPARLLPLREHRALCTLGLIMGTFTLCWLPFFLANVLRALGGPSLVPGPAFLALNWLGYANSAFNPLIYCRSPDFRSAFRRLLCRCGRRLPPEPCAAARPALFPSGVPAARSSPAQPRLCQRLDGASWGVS

SMILES	melting point [°C]	EC50 (human β3-AR; [1]) [nM]	Emax (human β3-AR; [2]) [%]	EC50 (human β3-AR) [nM]	Emax (human β3-AR; CHO) [%]
O=C1NC(=O)C(Nc2ccc(CCNC[C@H](O)COc3ccc(OCc4ccccc4)cc3)cc2)S1 (some centres unmarked) [Example 4, 5-{4-[2-({(2 S)-3-[4-(Benzyloxy)phenoxy]-2-hydroxypropyl}amino)ethyl]anilino}-1,3-thiazolidine-2,4-dione]	152	1	85	–	–
O=C1NC(=O)C(Nc2ccc(CCNC[C@H](O)COc3cccc4[nH]c5ccccc5c34)cc2)S1 (some centres unmarked) [Example 13, 5-[4-(2-{[(2 S)-3-(9 H-Carbazol-4-yloxy)-2-hydroxypropyl]amino}ethyl)anilino]-1 ,3-thiazolidine-2,4-dione]	–	12	104	–	–
CN(c1ccc(CCNC[C@H](O)COc2ccccc2)cc1)C1SC(=O)NC1=O (some centres unmarked) [Example 17, 5-[4-(2-{[(2 S)-2-Hydroxy-3-phenoxypropyl]amino}ethyl)(methyl)anilino]-1,3-thiazolidine-2,4-dione.]	–	17	68	–	–
CC(Cc1ccc(NC2SC(=O)NC2=O)cc1)NC[C@H](O)c1cccc(Cl)c1 (some centres unmarked) [Example 18, 5-[4-(2-{[(2 R)-2-(3-Chlorophenyl)-2-hydroxyethyl]amino}propyl)anilino]-1,3-thiazolidine-2,4-dione]	–	–	–	9	89
O=C1NC(=O)C(Nc2ccc(CCNC[C@@H](O)COc3cccc4[nH]c(=O)[nH]c34)cc2)S1 (some centres unmarked) [Example 19, 5-{4-[2-({(2 R)-2-Hydroxy-3-[(2-oxo-2,3-di hydro-1 H-benzimidazol-4-yl)oxy]propyl}amino)ethyl]anilino}-1,3-thiazolidine-2,4-dione]	–	20	71	–	–
O=C1NC(=O)C(Nc2ccc(CCNC[C@H](O)COc3ccc(-c4ccccc4)cc3)cc2)S1 (some centres unmarked) [Example 22, 5-(4-{2-[(2 S)-3-(Biphenyl-4-yloxy)-2-hydroxy-propylamino]-ethyl}-phenylamino)-thiazolidine-2,4-dione]	70 to 71	–	–	–	–
O=C1NC(=O)C(N(Cc2ccc(Br)cc2)c2ccc(CCNC[C@H](O)COc3ccccc3)cc2)S1 (some centres unmarked) [Example 29, 5-((4-Bromo-benzyl)-{4-[2-((2 S)-2-hydroxy-3-phenoxy-propylamino)-ethyl]-phenyl}-amino)-thiazolidine-2,4-dione]	–	3	109	–	–

Further lines, with some results ahead:

melting point [°C]	EC50 (human β3-AR; [1]) [nM]	Emax (human β3-AR; [2]) [%]	SMILES	EC50 (human β3-AR) [nM]	Emax (human β3-AR; CHO) [%]
46 to 48	–	–	O=C1NC(=O)C(Nc2ccc(CCNC[C@@H](O)c3cccnc3)cc2)S1 (some centres unmarked) (hydrate or solvate) [Example 30, 5-{4-[2-((2 S)-2-Hydroxy-2-pyridin-3-yl-ethylamino)-ethyl]-phenylamino}-thiazolidine-2,4-dione]	–	–
65 to 67	–	–	O=C1NC(=O)C(Nc2ccc(CCNC[C@H](O)c3cccnc3)cc2)S1 (some centres unmarked) (hydrate or solvate) [Example 31, 5-{4-[2-((2 R)-2-Hydroxy-2-pyridin-3-yl-ethylamino)-ethyl]-phenylamino}-thiazolidine-2,4-dione]	–	–
129 to 131	–	–	CN1C(=O)SC(Nc2ccc(CCNC[C@H](O)c3cccc(Cl)c3)cc2)C1=O (some centres unmarked) [Example 3, 5-[4-(2-{[(2 R)-2-(3-Chlorophenyl)-2-hydroxyethyl]amino}ethyl)anilino]-3-methyl-1,3-thiazolidine-2,4-dione]	–	–
165	20	99	O=C1NC(=O)C(Nc2ccc(CCNC[C@H](O)COc3ccc(O)cc3)cc2)S1 (some centres unmarked) [Example 5, 5-[4-(2-{[(2 S)-2-Hydroxy-3-(4-hydroxyphenoxy)propyl]amino}ethyl)anilino]-1,3-thiazolidine-2,4-dione]	–	–
162	7	83	O=C1NC(=O)C(Nc2ccc(CCNC[C@H](O)c3cccc(Cl)c3)cc2)S1 (some centres unmarked) [Example 6, 5-[4-(2-{[(2 R)-2-(3-Chlorophenyl)-2-hydroxy-ethyl]amino}ethyl)anilino]-1,3-thiazolidine-2,4-dione]	–	–
–	83	94	O=C1NC(=O)C(Nc2ccc(CCNC[C@H](O)c3ccccc3)cc2)S1 (some centres unmarked) [Example 7, 5-[4-(2-{[(2 R)-2-Hydroxy-2-phenylethyl]amino}ethyl)anilino]-1,3-thiazolidine-2,4-dione]	–	–
–	14	66	O=C1NC(=O)C(Nc2ccc(CCNC[C@H](O)COc3ccc(F)cc3)cc2)S1 (some centres unmarked) [Example 8, 5-[4-(2-{[(2 S)-3-(4-Fluorophenoxy)-2-hydroxypropyl]amino}ethyl)anilino]-1,3-thiazolidine-2,4-dione]	–	–
–	0.9	98	O=C1NC(=O)C(Nc2ccc(CCNC[C@H](O)COc3ccccc3)cc2)S1 (some centres unmarked) [Example 9, 5-[4-(2-{[(2 S)-2-Hydroxy-3-phenoxypropyl]amino}ethyl)anilino]-1,3-thiazolidine-2,4-dione]	–	–
–	3	117	O=C1NC(=O)C(Nc2ccc(CCNC[C@H](O)COc3cccc(O)c3)cc2)S1 (some centres unmarked) [Example 12, 5-[4-(2-{[(2 S)-2-Hydroxy-3-(3-hydroxyphenoxy)propyl]amino}ethyl)anilino]-1,3-thiazolidine-2,4-dione]	–	–
–	9	111	CS(=O)(=O)Nc1cc([C@H](O)CNCCc2ccc(NC3SC(=O)NC3=O)cc2)ccc1O (some centres unmarked) [Example 14, N{5-[(1 S)-2-({4-[(2,4-Dioxo-1,3-thiazolidin-5-yl)amino]phenethyl}amino)-1-hydroxyethyl]-2-hydroxyphenyl}methanesulfonamide]	–	–
–	96	88	O=C1NC(=O)C(Nc2ccc(CCNC[C@H](O)c3cccnc3)cc2)S1 (some centres unmarked) [Example 31, 5-{4-[2-((2 R)-2-Hydroxy-2-pyridin-3-yl-ethylamino)-ethyl]-phenylamino}-thiazolidine-2,4-dione]	–	–
